Measurements taken from patent US9079859B2, “Synthetic lethal targeting of glucose transport” (AUCKLAND UNISERVICES LIMITED, priority 2011, dated 2015).

Legend:
[1] = tested on: RCC4 cells; experiment: Necrotic cell death by trypan blue, RCC4; format: cell-based; settings: 5 μM, 3 days
Protocol: Cell Viability Assays. For 2,3-bis[2-methoxy-4-nitro-5-sulfophenyl]-2H-tetrazolium-5-carboxanilide (XTT) assays, five thousand cells were plated in 96-well plates. The next day, vehicle (DMSO) or drug was added by serial dilution. Four days later, media were aspirated, XTT solution (0.3 mg/ml of XTT (Sigma), […] N-methyl dibenxopyrazine methyl sulfate (Sigma) in phenol red-free media) was added, and the plates were incubated at 37° C. for 1-2 hours. Metabolism of XTT was quantified by measuring the absorbance at 450 nm. IC50s were calculated using linear interpolation. For clonogenic survival assays, three hundred cells were plated per 60 mm tissue culture dish. The cells were allowed to attach overnight and then treated with vehicle or drug for 14 days. Colonies were fixed and stained with crystal violet (0.1% crystal violet in 95% ethanol). All conditions were measured in triplicate and each experiment was done in duplicate or triplicate. To determine necrosis, cells were treated with drug for a given time point. Media and cells were collected, centrifugated, and resuspended in 0.4% trypan blue (Invitrogen). Live and dead cells were counted on a hematocytometer.

[2] = tested on: hexokinase; experiment: Hexokinase activity in whole-cell lysates, RCC4/VHL; format: cell-based
Description: We then examined whether this decrease in glycolysis in response to STF-31 was due to a decrease in glucose uptake or whether STF-31 inhibited a particular glycolytic enzyme. To test this, we measured glucose uptake using 2-deoxy-D-[^3H] glucose, a non-hydrolyzable, radioactive glucose analog. STF-31 impaired glucose uptake in RCC4 and 786-O cells but not in the matched isogenic cells expressing wild-type VHL (FIGS. 2B, 6A, and 6C). RCC4/VHL cells had lower baseline levels of glucose uptake compared to RCC4 cells and were unaffected by treatment with STF-31. […] Because the phosphorylation of glucose to glucose-6-phosphate is important for preventing glucose efflux from the cell, we asked whether STF-31 might function by inhibiting the phosphorylation of glucose by hexokinase. […]
Cell Culture and Reagents. […] GLUT1 was detected with anti-GLUT1 antibody from NeoMarkers/LabVision/Fisher. For immunofluorescent studies, GLUT1, GLUT2, and GLUT3 antibodies were purchased from R&D. Pyruvate/lactate levels and hexokinase activity were both measured by fluorometric assay (BioVision and Sigma-Aldrich, respectively). ATP levels were measured by bioluminescence assay (ATP Determination Kit from Molecular Probes/Invitrogen). […]

[3] = tested on: RCC4/VHL; experiment: RCC panel sensitivity (Table 2); format: cell-based; settings: VHL wild-type
[4] = molecular target: T1, CDK1/cyclinB (Homo sapiens, UniProt P06493); experiment: Kinase Profiler; format: biochemical; settings: STF-31 10 μM
T1 construct: purchased Millipore (Kinase Profiler service)
Protocol: (§1) Cell Culture and Reagents. All cells were grown in DMEM+10% FCS. ACHN and ACHN shVHL were a kind gift from George V. Thomas (UCLA). HIF overexpressing clones were described previously (Sutphin et al., Cancer Res, 67:5896-5905 (2007)). Transfection of RNA oligos were performed with DnarmaFECT Reagent 1 (Dharmcon), according to manufacturer's directions. ON-TARGETplus SMART pools against HIF-1 R/ARNT were purchased from Dharmacon. Inducible shRNAmir to GLUT1 was purchased from Open Biosystems. GLUT1 was detected with anti-GLUT1 antibody from NeoMarkers/LabVision/Fisher. For immunofluorescent studies, GLUT1, GLUT2, and GLUT3 antibodies were purchased from R&D. Pyruvate/lactate levels and hexokinase activity were both measured by fluorometric assay (BioVision and Sigma-Aldrich, respectively). ATP levels were measured by bioluminescence assay (ATP Determination Kit from Molecular Probes/Invitrogen). In vitro kinase activities were performed by Millipore Kinase Profiler.

[5] = molecular target: T2, CDK6/cyclinD3 (Homo sapiens, UniProt Q00534); experiment: Kinase Profiler; format: biochemical; settings: STF-31 10 μM
T2 construct: purchased Millipore (Kinase Profiler service)
Protocol: as §1

[6] = molecular target: T3, CHK1 (Homo sapiens, UniProt O14757); experiment: Kinase Profiler; format: biochemical; settings: STF-31 10 μM
T3 construct: purchased Millipore (Kinase Profiler service)
Protocol: as §1

[7] = molecular target: T4, CK1γ1 (Homo sapiens, UniProt Q9HCP0); experiment: Kinase Profiler; format: biochemical; settings: STF-31 10 μM
T4 construct: purchased Millipore (Kinase Profiler service)
Protocol: as §1

[8] = molecular target: T5, CSK (Homo sapiens, UniProt P41240); experiment: Kinase Profiler; format: biochemical; settings: STF-31 10 μM
T5 construct: purchased Millipore (Kinase Profiler service)
Protocol: as §1

[9] = molecular target: T6, DAPK1 (Homo sapiens, UniProt P53355); experiment: Kinase Profiler; format: biochemical; settings: STF-31 10 μM
T6 construct: purchased Millipore (Kinase Profiler service)
Protocol: as §1

[10] = molecular target: T7, DYRK2 (Homo sapiens, UniProt Q92630); experiment: Kinase Profiler; format: biochemical; settings: STF-31 10 μM
T7 construct: purchased Millipore (Kinase Profiler service)
Protocol: as §1

[11] = molecular target: T8, Fyn (Homo sapiens, UniProt P06241); experiment: Kinase Profiler; format: biochemical; settings: STF-31 10 μM
T8 construct: purchased Millipore Kinase Profiler
Protocol: as §1

[12] = molecular target: T9, Hck (Homo sapiens, UniProt P08631); experiment: Kinase Profiler; format: biochemical; settings: STF-31 10 μM
T9 construct: purchased Millipore Kinase Profiler
Protocol: as §1

[13] = molecular target: T10, IGF-1R (Homo sapiens, UniProt P08069); experiment: Kinase Profiler; format: biochemical; settings: STF-31 10 μM
T10 construct: purchased Millipore Kinase Profiler
Protocol: as §1

[14] = molecular target: T11, JNK1α1 (Homo sapiens, UniProt P45983); experiment: Kinase Profiler; format: biochemical; settings: STF-31 10 μM
T11 construct: purchased Millipore Kinase Profiler
Protocol: as §1

[15] = molecular target: T12, MLK1 (Homo sapiens, UniProt P80192); experiment: Kinase Profiler; format: biochemical; settings: STF-31 10 μM
T12 construct: purchased Millipore Kinase Profiler
Protocol: as §1

[16] = molecular target: T13, MSK1 (Homo sapiens, UniProt O75582); experiment: Kinase Profiler; format: biochemical; settings: STF-31 10 μM
T13 construct: purchased Millipore Kinase Profiler
T13 sequence (O75582 whole entry, species assumed): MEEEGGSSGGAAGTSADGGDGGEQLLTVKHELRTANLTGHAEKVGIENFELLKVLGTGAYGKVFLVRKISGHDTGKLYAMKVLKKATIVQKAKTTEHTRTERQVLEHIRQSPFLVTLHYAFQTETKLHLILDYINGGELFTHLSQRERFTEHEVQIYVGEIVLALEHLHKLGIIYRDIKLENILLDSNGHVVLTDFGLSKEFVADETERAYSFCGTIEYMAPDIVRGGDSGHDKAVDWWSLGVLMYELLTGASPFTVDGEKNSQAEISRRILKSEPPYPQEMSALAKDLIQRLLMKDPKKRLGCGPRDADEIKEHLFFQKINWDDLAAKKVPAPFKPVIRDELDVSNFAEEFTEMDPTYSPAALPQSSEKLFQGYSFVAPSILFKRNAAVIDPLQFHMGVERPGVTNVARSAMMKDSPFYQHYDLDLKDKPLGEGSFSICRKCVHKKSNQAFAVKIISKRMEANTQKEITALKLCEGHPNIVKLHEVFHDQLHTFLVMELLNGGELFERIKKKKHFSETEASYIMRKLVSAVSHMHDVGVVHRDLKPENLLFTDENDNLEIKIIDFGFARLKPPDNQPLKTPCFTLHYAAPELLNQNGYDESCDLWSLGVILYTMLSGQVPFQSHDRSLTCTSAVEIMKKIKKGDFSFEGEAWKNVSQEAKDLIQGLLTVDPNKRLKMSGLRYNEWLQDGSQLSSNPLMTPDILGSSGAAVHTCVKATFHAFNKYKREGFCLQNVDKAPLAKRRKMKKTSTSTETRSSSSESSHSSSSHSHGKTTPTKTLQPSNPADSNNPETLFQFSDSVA
Protocol: as §1

[17] = molecular target: T14, Met (Homo sapiens, UniProt P08581); experiment: Kinase Profiler; format: biochemical; settings: STF-31 10 μM
T14 construct: purchased Millipore Kinase Profiler
T14 sequence (P08581 25-1390): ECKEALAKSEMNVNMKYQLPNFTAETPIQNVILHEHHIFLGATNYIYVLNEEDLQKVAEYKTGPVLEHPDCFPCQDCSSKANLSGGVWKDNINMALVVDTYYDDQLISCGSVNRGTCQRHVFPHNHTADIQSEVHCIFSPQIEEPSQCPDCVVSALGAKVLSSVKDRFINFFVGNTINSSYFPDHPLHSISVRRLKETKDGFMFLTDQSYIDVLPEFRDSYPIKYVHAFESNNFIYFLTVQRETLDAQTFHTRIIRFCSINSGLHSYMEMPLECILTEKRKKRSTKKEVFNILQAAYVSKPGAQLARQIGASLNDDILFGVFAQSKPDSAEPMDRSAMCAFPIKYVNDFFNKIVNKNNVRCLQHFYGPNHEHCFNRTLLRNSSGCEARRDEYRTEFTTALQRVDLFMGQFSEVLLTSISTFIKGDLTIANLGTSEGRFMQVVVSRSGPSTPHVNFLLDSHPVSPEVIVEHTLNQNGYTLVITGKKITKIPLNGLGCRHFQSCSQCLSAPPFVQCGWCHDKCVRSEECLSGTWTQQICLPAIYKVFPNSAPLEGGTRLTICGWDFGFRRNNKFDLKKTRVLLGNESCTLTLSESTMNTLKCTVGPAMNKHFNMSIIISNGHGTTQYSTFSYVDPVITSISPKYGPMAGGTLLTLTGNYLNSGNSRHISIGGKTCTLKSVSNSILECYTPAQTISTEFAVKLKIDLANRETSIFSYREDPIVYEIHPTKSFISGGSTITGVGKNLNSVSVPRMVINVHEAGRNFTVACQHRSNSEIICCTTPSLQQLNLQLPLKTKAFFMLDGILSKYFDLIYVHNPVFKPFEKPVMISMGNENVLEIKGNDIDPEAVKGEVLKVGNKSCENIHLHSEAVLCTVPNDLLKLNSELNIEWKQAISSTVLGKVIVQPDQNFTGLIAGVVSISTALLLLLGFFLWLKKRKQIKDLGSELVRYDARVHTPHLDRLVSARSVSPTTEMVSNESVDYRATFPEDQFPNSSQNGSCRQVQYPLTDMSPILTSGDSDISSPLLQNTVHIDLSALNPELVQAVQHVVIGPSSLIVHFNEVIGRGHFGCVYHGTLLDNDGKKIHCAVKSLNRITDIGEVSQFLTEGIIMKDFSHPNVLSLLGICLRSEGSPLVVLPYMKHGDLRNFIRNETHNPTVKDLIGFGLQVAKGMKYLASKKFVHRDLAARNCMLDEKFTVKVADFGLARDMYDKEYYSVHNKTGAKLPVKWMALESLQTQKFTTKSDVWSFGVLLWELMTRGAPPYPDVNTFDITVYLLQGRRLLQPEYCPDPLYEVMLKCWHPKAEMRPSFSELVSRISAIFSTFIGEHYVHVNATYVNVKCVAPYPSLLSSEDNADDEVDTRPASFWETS
Protocol: as §1

[18] = molecular target: T15, PAK2 (Homo sapiens, UniProt Q13177); experiment: Kinase Profiler; format: biochemical; settings: STF-31 10 μM
T15 construct: purchased Millipore Kinase Profiler
Protocol: as §1

[19] = molecular target: T16, PDK1 (Homo sapiens, UniProt O15530); experiment: Kinase Profiler; format: biochemical; settings: STF-31 10 μM
T16 construct: purchased Millipore Kinase Profiler
T16 sequence (O15530 whole entry): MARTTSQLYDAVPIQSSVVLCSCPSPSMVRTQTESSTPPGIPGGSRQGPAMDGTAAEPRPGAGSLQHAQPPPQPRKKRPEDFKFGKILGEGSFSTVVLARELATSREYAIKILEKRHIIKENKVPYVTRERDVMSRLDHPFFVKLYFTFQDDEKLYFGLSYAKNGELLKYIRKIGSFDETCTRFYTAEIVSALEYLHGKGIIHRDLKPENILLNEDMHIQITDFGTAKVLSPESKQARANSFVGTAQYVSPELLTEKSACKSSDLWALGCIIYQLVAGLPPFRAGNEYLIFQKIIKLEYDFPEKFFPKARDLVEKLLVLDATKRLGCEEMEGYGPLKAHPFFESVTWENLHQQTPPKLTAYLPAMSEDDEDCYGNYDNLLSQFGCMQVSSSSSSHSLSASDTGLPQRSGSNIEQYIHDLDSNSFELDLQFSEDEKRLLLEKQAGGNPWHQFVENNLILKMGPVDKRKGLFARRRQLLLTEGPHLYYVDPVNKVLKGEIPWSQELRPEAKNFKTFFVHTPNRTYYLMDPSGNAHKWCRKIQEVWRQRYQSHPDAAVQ
Protocol: as §1

[20] = molecular target: T17, Pim-2 (Homo sapiens, UniProt Q9P1W9); experiment: Kinase Profiler; format: biochemical; settings: STF-31 10 μM
T17 construct: purchased Millipore Kinase Profiler
Protocol: as §1

[21] = molecular target: T18, ROCK-I (Homo sapiens, UniProt Q13464); experiment: Kinase Profiler; format: biochemical; settings: STF-31 10 μM
T18 construct: purchased Millipore (Kinase Profiler service)
T18 sequence (Q13464 whole entry, species assumed): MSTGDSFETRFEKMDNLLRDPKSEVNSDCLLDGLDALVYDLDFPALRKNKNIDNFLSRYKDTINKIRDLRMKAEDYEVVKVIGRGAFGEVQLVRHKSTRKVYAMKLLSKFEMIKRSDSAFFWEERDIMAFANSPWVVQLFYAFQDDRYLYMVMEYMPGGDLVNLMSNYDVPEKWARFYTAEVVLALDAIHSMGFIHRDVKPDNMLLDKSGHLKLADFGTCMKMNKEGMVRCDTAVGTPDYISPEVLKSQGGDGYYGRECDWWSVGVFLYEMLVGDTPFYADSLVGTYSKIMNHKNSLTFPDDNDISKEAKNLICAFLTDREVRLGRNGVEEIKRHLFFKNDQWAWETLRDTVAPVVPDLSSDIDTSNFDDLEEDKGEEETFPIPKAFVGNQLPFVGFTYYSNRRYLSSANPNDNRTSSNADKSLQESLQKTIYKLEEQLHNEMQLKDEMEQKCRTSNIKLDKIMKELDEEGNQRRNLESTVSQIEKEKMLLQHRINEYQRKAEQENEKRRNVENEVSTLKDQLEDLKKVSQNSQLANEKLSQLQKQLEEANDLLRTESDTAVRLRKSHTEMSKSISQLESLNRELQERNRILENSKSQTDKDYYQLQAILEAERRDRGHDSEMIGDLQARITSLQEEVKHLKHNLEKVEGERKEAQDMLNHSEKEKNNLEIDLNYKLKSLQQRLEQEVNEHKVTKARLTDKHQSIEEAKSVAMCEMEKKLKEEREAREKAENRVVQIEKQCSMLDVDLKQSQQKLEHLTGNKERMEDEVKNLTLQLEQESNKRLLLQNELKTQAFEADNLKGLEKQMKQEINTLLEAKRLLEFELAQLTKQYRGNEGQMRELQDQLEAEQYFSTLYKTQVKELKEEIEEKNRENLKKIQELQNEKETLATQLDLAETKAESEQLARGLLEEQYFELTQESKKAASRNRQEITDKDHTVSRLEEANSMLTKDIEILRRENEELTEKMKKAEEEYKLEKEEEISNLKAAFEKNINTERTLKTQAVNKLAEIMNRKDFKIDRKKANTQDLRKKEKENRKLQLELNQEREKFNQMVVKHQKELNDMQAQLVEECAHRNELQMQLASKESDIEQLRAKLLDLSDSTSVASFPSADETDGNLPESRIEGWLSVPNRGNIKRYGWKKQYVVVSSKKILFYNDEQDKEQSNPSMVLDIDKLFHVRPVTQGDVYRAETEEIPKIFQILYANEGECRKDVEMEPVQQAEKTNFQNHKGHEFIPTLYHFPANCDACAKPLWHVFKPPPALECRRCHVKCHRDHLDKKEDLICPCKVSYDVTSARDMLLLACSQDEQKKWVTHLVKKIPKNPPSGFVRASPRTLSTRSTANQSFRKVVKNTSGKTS
Protocol: as §1

[22] = molecular target: T19, TrkA (Homo sapiens, UniProt P04629); experiment: Kinase Profiler; format: biochemical; settings: STF-31 10 μM
T19 construct: purchased Millipore (Kinase Profiler service)
T19 sequence (P04629 33-796, species assumed): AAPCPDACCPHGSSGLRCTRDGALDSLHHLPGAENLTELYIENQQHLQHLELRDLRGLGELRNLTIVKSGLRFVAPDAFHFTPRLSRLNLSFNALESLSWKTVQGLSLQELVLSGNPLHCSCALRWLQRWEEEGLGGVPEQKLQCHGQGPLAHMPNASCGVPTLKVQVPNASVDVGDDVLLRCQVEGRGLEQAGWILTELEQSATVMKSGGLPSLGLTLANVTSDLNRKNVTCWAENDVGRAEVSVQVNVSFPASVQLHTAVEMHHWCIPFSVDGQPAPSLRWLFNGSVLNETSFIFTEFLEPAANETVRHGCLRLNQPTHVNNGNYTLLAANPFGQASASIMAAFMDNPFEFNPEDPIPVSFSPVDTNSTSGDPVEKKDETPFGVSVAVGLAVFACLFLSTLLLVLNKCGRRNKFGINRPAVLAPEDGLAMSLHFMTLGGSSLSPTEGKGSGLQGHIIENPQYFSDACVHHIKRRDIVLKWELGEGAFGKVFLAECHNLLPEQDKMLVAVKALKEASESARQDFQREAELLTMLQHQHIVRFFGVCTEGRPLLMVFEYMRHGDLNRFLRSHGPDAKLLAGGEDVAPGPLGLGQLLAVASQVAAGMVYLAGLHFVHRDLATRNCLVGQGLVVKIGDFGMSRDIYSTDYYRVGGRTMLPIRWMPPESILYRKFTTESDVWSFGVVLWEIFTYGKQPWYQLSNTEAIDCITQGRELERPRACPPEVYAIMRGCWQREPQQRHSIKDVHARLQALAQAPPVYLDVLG
Protocol: as §1

[23] = molecular target: T20, c-RAF (Homo sapiens, UniProt P04049); experiment: Kinase Profiler; format: biochemical; settings: STF-31 10 μM
T20 construct: purchased Millipore (Kinase Profiler service)
Protocol: as §1

[24] = molecular target: T21, mTOR (Homo sapiens, UniProt P42345); experiment: Kinase Profiler; format: biochemical; settings: STF-31 10 μM
T21 construct: purchased Millipore Kinase Profiler
Protocol: as §1

`CC(C)(C)c1ccc(S(=O)(=O)NCc2ccc(C(=O)Nc3cccnc3)cc2)cc1` [STF-31] was tested, and the “RCC4 cells exhibiting necrotic cell death” value [1] was “greater than 80%”, the “hexokinase activity of RCC4/VHL cells” value [2] was “unchanged” and the “3-series sensitivity (sensitivity to STF-31)” value [3] was “No”. The “Kinase response to STF-31” value [4] was 96, the “Kinase response to STF-31” value [5] was 105 and the “Kinase response to STF-31” value [6] was 114. For the same compound, the “Kinase response to STF-31” value [7] was 85, the “Kinase response to STF-31” value [8] was 99 and the “Kinase response to STF-31” value [9] was 92. For the same compound, the “Kinase response to STF-31” value [10] was 94, the “Kinase response to STF-31” value [11] was 91 and the “Kinase response to STF-31” value [12] was 84. The “Kinase response to STF-31” value [13] was 108, the “Kinase response to STF-31” value [14] was 101 and the “Kinase response to STF-31” value [15] was 97. The “Kinase response to STF-31” value [16] was 107, the “Kinase response to STF-31” value [17] was 105 and the “Kinase response to STF-31” value [18] was 97. The “Kinase response to STF-31” value [19] was 105, the “Kinase response to STF-31” value [20] was 112 and the “Kinase response to STF-31” value [21] was 74. The “Kinase response to STF-31” value [22] was 124, the “Kinase response to STF-31” value [23] was 103 and the “Kinase response to STF-31” value [24] was 101.
